Where two headings read alike, the source gives them in different places. Marks after values point to notes of the source that are not given here. One block for each compound: values may come before it.
What was measured:
[1] = biological target: human D3 dopamine receptor (Homo sapiens, UniProt P35462); assay: Competitive radioligand binding, D3 dopamine receptor; details: D2:D3 Ki value ratio
[2] = biological target: T1, human D3 receptors expressed in stably transfected HEK 293 cells (Homo sapiens, UniProt P35462); assay: Forskolin-dependent whole cell adenylyl cyclase inhibition assay, D3; assay type: cell-based; details: result in words
[3] = published data; ref Leopoldo et al, 2002. [24]; cited from earlier work
[4] = biological target: T1, human D3 receptors expressed in stably transfected HEK 293 cells; details: result in words, previously reported; cited from earlier work

T1 sequence (P35462 whole entry): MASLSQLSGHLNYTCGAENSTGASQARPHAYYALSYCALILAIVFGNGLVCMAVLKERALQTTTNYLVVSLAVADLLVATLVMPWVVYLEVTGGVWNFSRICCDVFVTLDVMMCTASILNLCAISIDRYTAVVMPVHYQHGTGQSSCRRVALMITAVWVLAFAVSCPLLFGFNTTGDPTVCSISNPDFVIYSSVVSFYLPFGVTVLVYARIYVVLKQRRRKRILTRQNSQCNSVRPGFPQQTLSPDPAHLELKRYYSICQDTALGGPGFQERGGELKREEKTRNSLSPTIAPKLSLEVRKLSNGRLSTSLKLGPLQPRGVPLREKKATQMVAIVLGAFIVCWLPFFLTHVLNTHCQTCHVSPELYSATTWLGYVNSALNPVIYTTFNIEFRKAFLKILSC
Sequence of human D3 dopamine receptor (P35462 whole entry): as above

D2/D3 (Ki ratio) [1]: > 100
Structure (SMILES): COc1ccccc1N1CCCN(CCCCNC(=O)c2ccc(-c3ccsc3)cc2)CC1 [Compound 11a, N-(4-(4-(2-Methoxyphenyl)-1,4-diazepan-1-yl)butyl)-4-(thiophen-3-yl)benzamide]

efficacy class at D3 receptors [2]: strong partial agonist
Structure (SMILES): COc1ccccc1N1CCCN(CCCCNC(=O)c2ccc(CCF)cc2)CC1 [Compound 11e, 4-(2-Fluoroethyl)-N-(4-(4-(2-methoxyphenyl)-1,4-diazepan-1-yl)butyl)benzamide]

Structure (SMILES): O=C(NCCCCN1CCN(c2cccc(Cl)c2Cl)CC1)c1ccc2c(c1)Cc1ccccc1-2 [NGB-2904]
Log P [3]: 6.94 ^h

Structure (SMILES): COc1ccccc1N1CCN(CCCCNC(=O)c2ccc(CCF)cc2)CC1 [WC-44]
efficacy class at D3 receptors [4]: full agonist

From paper PMC3733449 (Bioorganic & medicinal chemistry, 2013)
